Experimental data from the supplement of paper PMC10627819.

Assays:
[1] = system: S. aureus DSM 20231; assay: fitness (endpoint OD595 vs no drug) (fraction); higher = more growth
Method in brief: (§1)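 Cultures at OD595 0.01 were dispensed into 384-well plates in TSB, LB Lennox or CY and incubated at 37 °C. Every 30 min for 14 h, OD595 was read and corrected by the first reading. Fitness is the optical density at entry into stationary phase relative to the robust mean of no-drug control wells, capped at 1.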

[2] = system: S. pneumoniae D39V; assay: as above
Method in brief: as §1

[3] = system: B. subtilis 168; assay: Bliss interaction score (quartile over a dose matrix) (fitness difference); higher = more antagonism (negative = synergy)
Method in brief: (§2)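 The Bliss score was calculated by subtracting the expected fitness, the product of single-drug values, from the observed fitness. OD595 at entry into stationary phase, over the plate's robust no-drug mean and capped at 1, served as the fitness readout. Single-drug values were inferred from combination data, and scores are summarised by quartiles across technical, biological and donor/recipient replicates.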

[4] = system: S. aureus DSM 20231; assay: as above
Method in brief: as §2

[5] = system: S. aureus Newman; assay: as above
Method in brief: as §2

[6] = system: S. pneumoniae D39V; assay: as above
Method in brief: as §2

[7] = system: B. subtilis 168; assay: fitness (endpoint OD595 vs no drug) (fraction); higher = more growth
Method in brief: as §1
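Wherever Bliss interaction score (quartile over a dose matrix) is given: first quartile when negative (synergy) and third quartile when positive (antagonism).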

CC(=O)NC[C@H]1CN(c2ccc(N3CCOCC3)c(F)c2)C(=O)O1 [Linezolid] + CN[C@H](CC(C)C)C(=O)N[C@H]1C(=O)N[C@@H](CC(N)=O)C(=O)N[C@H]2C(=O)N[C@H]3C(=O)N[C@H](C(=O)N[C@H](C(=O)O)c4cc(O)cc(O)c4-c4cc3ccc4O)[C@H](O)c3ccc(c(Cl)c3)Oc3cc2cc(c3O[C@@H]2O[C@H](CO)[C@@H](O)[C@H](O)[C@H]2O[C@H]2C[C@](C)(N)[C@H](O)[C@H](C)O2)Oc2ccc(cc2Cl)[C@H]1O [Vancomycin]
Settings	fitness
[1], first compound 0.125 µg/mL, partner 0.1875 µg/mL	0.897
[1], first compound 0.125 µg/mL, partner 0.375 µg/mL	0.936
[1], first compound 0.125 µg/mL, partner 0.75 µg/mL	0.943
[1], first compound 0.25 µg/mL, partner 0.1875 µg/mL	0.553
[1], first compound 0.25 µg/mL, partner 0.375 µg/mL	0.596
[1], first compound 0.25 µg/mL, partner 0.75 µg/mL	0.583
[1], first compound 0.5 µg/mL, partner 0.1875 µg/mL	0.204
[1], first compound 0.5 µg/mL, partner 0.375 µg/mL	0.18
[1], first compound 0.5 µg/mL, partner 0.75 µg/mL	0.215
[2], first compound 0.105 µg/mL, partner 0.125 µg/mL	0.689
[2], first compound 0.105 µg/mL, partner 0.25 µg/mL	0.0692
[2], first compound 0.105 µg/mL, partner 0.5 µg/mL	0.0491
[2], first compound 0.2 µg/mL, partner 0.03125 µg/mL	0.77
[2], first compound 0.2 µg/mL, partner 0.0625 µg/mL	0.751
[2], first compound 0.21 µg/mL, partner 0.125 µg/mL	0.573
[2], first compound 0.21 µg/mL, partner 0.25 µg/mL	0.082
[2], first compound 0.21 µg/mL, partner 0.5 µg/mL	0.0299
[2], first compound 0.4 µg/mL, partner 0.03125 µg/mL	0.63
[2], first compound 0.4 µg/mL, partner 0.0625 µg/mL	0.604
[2], first compound 0.42 µg/mL, partner 0.125 µg/mL	0.339
[2], first compound 0.42 µg/mL, partner 0.25 µg/mL	0.0579
[2], first compound 0.42 µg/mL, partner 0.5 µg/mL	0.0734
[2], first compound 0.8 µg/mL, partner 0.03125 µg/mL	0.302
[2], first compound 0.8 µg/mL, partner 0.0625 µg/mL	0.255
[2], first compound 0.8 µg/mL, partner 0.125 µg/mL	0.188

[1], first compound 1 µg/mL, one replicate
Settings	fitness
partner 0.1875 µg/mL	0.0273
partner 0.375 µg/mL	0.0396
partner 0.75 µg/mL	0.0452

Settings	Bliss interaction score
[3]	0.0387
[4]	0.0467
[5]	-0.044
[6]	-0.13

CC(=O)NC[C@H]1CN(c2ccc(N3CCOCC3)c(F)c2)C(=O)O1 [Linezolid] + COc1cc(Cc2cnc(N)nc2N)cc(OC)c1OC [Trimethoprim]
one replicate
Settings	fitness
[1], first compound 0.125 µg/mL, partner 0.125 µg/mL	0.693
[1], first compound 1 µg/mL, partner 0.125 µg/mL	0.0426
[1], first compound 1 µg/mL, partner 0.25 µg/mL	0.0292
[1], first compound 1 µg/mL, partner 0.5 µg/mL	0.0293
[7], first compound 0.0625 µg/mL, partner 0.125 µg/mL	0.455
[7], first compound 0.0625 µg/mL, partner 0.25 µg/mL	0.379
[7], first compound 0.0625 µg/mL, partner 0.5 µg/mL	0.365
[7], first compound 0.125 µg/mL, partner 0.1 µg/mL	0.661
[7], first compound 0.125 µg/mL, partner 0.2 µg/mL	0.51
[7], first compound 0.125 µg/mL, partner 0.4 µg/mL	0.458
[7], first compound 0.125 µg/mL, partner 1 µg/mL	0.338
[7], first compound 0.125 µg/mL, partner 2 µg/mL	0.252
[7], first compound 0.25 µg/mL, partner 0.1 µg/mL	0.224
[7], first compound 0.25 µg/mL, partner 0.2 µg/mL	0.137
[7], first compound 0.25 µg/mL, partner 0.4 µg/mL	0.0855
[7], first compound 0.25 µg/mL, partner 1 µg/mL	0.0539
[7], first compound 0.25 µg/mL, partner 2 µg/mL	0.0332
[7], first compound 0.5 µg/mL, partner 0.1 µg/mL	0.0326
[7], first compound 0.5 µg/mL, partner 0.125 µg/mL	0.0335
[7], first compound 0.5 µg/mL, partner 0.2 µg/mL	0.0707
[7], first compound 0.5 µg/mL, partner 0.4 µg/mL	0.034
[7], first compound 0.5 µg/mL, partner 1 µg/mL	0.0459
[7], first compound 0.5 µg/mL, partner 2 µg/mL	0.0328

fitness
Settings	partner 0.125 µg/mL	partner 0.25 µg/mL	partner 0.5 µg/mL	partner 1 µg/mL
[1], first compound 0.125 µg/mL	–	0.7	0.54	0.0522
[1], first compound 0.25 µg/mL	0.511	0.566	0.462	0.118
[1], first compound 0.5 µg/mL	0.157	0.153	0.139	0.115
[7], first compound 0.125 µg/mL	0.481	–	–	–
[7], first compound 0.25 µg/mL	0.178	0.239	0.149	–
[7], first compound 0.5 µg/mL	–	0.0539	0.0519	–

Settings	Bliss interaction score
[3]	0.0503
[4]	0.129
[5]	0.096
[6]	-0.161

CC(=O)NC[C@H]1CN(c2ccc(N3CCOCC3)c(F)c2)C(=O)O1 [Linezolid] + CCCCCCCCCC(=O)N[C@@H]1[C@H]([C@@H]([C@H](O[C@H]1OC2=C3C=C4C=C2OC5=C(C=C(C=C5)[C@H]([C@H]6C(=O)N[C@@H](C7=C(C(=CC(=C7)O)OC8[C@H]([C@H]([C@@H]([C@H](O8)CO)O)O)O)C9=C(C=CC(=C9)[C@H](C(=O)N6)NC(=O)[C@@H]4NC(=O)[C@@H]1C2=CC(=CC(=C2)OC2=C(C=CC(=C2)[C@H](C(=O)N[C@H](CC2=CC(=C(O3)C=C2)Cl)C(=O)N1)N)O)O)O)C(=O)O)O[C@H]1[C@@H]([C@H]([C@@H]([C@H](O1)CO)O)O)NC(=O)C)Cl)CO)O)O [Teicoplanin]
fitness, [1], main component drawn
Settings	first compound 0.125 µg/mL	first compound 0.25 µg/mL	first compound 0.5 µg/mL
partner 0.1562 µg/mL	0.852	0.649	0.158
partner 0.3125 µg/mL	0.989	–	–
partner 0.625 µg/mL	≥ 1	–	–

[1], first compound 1 µg/mL, one replicate, main component drawn
Settings	fitness
partner 0.1562 µg/mL	0.0359
partner 0.3125 µg/mL	0.0319
partner 0.625 µg/mL	0.0292

main component drawn
Settings	Bliss interaction score
[3]	-0.0585
[4]	0.109
[5]	0.116
[6]	-0.0593

CC(=O)NC[C@H]1CN(c2ccc(N3CCOCC3)c(F)c2)C(=O)O1 [Linezolid] + Cn1nnc(-c2ccc(-c3ccc(N4C[C@H](CO)OC4=O)cc3F)cn2)n1 [Tedizolid]
fitness
Settings	partner 0.03125 µg/mL	partner 0.0625 µg/mL	partner 0.125 µg/mL	partner 0.25 µg/mL	partner 0.5 µg/mL
[1], first compound 0.125 µg/mL	–	0.689	0.501	0.257	–
[1], first compound 0.25 µg/mL	–	0.456	0.26	0.141	–
[1], first compound 0.5 µg/mL	–	0.119	0.0888	0.0646	–
[2], first compound 0.105 µg/mL	–	–	0.682	0.441	0.141
[2], first compound 0.2 µg/mL	0.819	0.825	0.723	–	–
[2], first compound 0.21 µg/mL	–	–	0.58	0.286	0.0818
[2], first compound 0.4 µg/mL	0.73	0.724	0.633	–	–
[2], first compound 0.42 µg/mL	–	–	0.249	0.107	0.0451
[2], first compound 0.8 µg/mL	0.549	0.578	0.465	–	–

[1], first compound 1 µg/mL, one replicate
Settings	fitness
partner 0.0625 µg/mL	0.0257
partner 0.125 µg/mL	0.0309
partner 0.25 µg/mL	0.0295

Settings	Bliss interaction score
[3]	-0.188
[4]	-0.185
[5]	-0.153
[6]	-0.148
